Assays:
[1] = system: HER2- or PI3K-driven breast tumors growing in the MFP (BT474, MDA-MB-361, T-47D); assay: Mammary fat pad (MFP) xenograft tumor growth; format: in vivo, nude mice; conditions: COMPOUND A 30 or 50 mg/kg once a day p.o.; FIG. 1A
Source text: (§1) 5-(2,6-di-morpholin-4-yl-pyrimidin-4-yl)-4-trifluoromethyl-pyridin-2-ylamine (referred to herein as “COMPOUND A”) is a potent and specific pan-Class I PI3K inhibitor with activity against breast cancer cells bearing HER2-amplification as well as oncogenic PI3K catalytic subunit alpha (PIK3CA) mutations. We compared the efficacy of COMPOUND A on identical human HER2-positive breast cancer cells growing in the MFP or in the brain parenchyma of nude mice. The three breast cancer cell lines examined included HER2-amplified BT474, HER2-amplified and PIK3CA mutant (E545K) MDA-MB-361, and PIK3CA mutant (H1047R) T-47D cell lines. […] Furthermore, the concentration of COMPOUND A in breast tumors growing at both sites, as well as in the plasma of these mice was identical.
(§2) BT474, MDA-MB-361, and T-47D cells were transduced with an expression cassette encoding Gluc and GFP separated by an internal ribosomal entry site, using a lentiviral vector. GFP-positive cells were sorted with a FACSAria cell sorter (BD Biosciences). […]
(§3) Tumor size was measured twice a week by measuring the activity of secreted Gluc in the blood. […] Blood was transferred to an opaque 96-well plate, and Gluc activity was measured using coelenterazine (CTZ; Nanolight) as a substrate and a plate luminometer (Centro XS LB960; Berthold Technologies). […]

p-AKT = p-AKT inhibition in tumor tissue (BM versus MFP tumors); format: in vivo, nude mice; conditions: tumor tissue collected two hours after the final dose
Source text: as §1

[2] = system: human breast cancer cells growing in the brain parenchyma (BT474, MDA-MB-361, T-47D); assay: Brain metastatic xenograft tumor growth (three cell lines, Example 1); format: in vivo, nude mice; conditions: COMPOUND A 30 or 50 mg/kg once a day p.o.; FIG. 1B
Source text: as §1, §2, §3

BT474-Gluc-BR cells = assay: In vitro sensitivity of cancer cells isolated from a brain metastatic tumor; format: cell-based, human; conditions: BT474-Gluc-BR cultured for a week in vitro
Source text: We began our investigation into the resistance of breast cancer BM to PI3K inhibition by asking if breast cancer cells require constant influence from the brain microenvironment. We isolated breast cancer cells after dissociation of a brain metastatic tumor (termed BT474-Gluc-BR). After cultured for a week in vitro, the vast majority of viable cells were cancer cells, as identified by GFP. […] Instead, breast cancer cells must receive continuous support from the brain microenvironment in order to maintain resistance. […]
The xCELLigence system (Acea Biosciences Inc.) was used to assess the cell index of T-47D, BT474 and MDA-MB-361 cells. xCELLigence measures electrical impedance across micro-electrodes integrated at the bottom of tissue culture E-plates to provide quantitative information about the biological status of cells, including cell number, morphology and viability. […] Cells were monitored every 15 m for a period of up to 24 h via the incorporated sensor electrode arrays of the E-Plate 96. […] Electric impedance was measured in 1 h intervals after addition of drug until the end of the experiment. Cell index value, which is a dimensionless parameter derived as a relative change in measured electrical impedance to represent numbers of attached cells, was calculated from the electric impedance and plotted using the RTCA software provided by the vendor. […]

[3] = Compound A concentration measurement in tumor and plasma (LC-MS/MS); format: in vivo, nude mice; conditions: tumor lysate by LC-MS/MS; comparison between sites
Description: Tumor samples were collected, weighed and lysed in Lysing Matrix D tube (MP Biomedicals) in RIPA buffer (Cell Signaling Technologies (CST)) at fixed weight/volume ratio. The samples were centrifuged at 13,000 rpm and 4° C. in Micro centrifuge for 10 min. Supernatant was collected from the lysate and stored at −80° C. The COMPOUND A concentration in tumor lysate was analyzed by LC-MS/MS at Inventiv Health Clinical Lab, Inc. It was then normalized by tumor weight-lysis buffer ratio to yield COMPOUND A exposure (ng/mL) in tumor tissue.

[4] = system: three HER2-positive breast cancer cell lines; assay: Resistance analysis of secreted growth factors (CellTiter-Glo rescue); format: cell-based, human; conditions: unbiased analysis of 220 growth factors; 96 h incubation
Source text: A collection of cDNA constructs representing secreted and single pass transmembrane proteins was identified (as described previously described^56) and purchased from Invitrogen Ultimate ORF collection. (The library is maintained by DMP BioArchive.) pCDNA-DEST40 (Invitrogen) was the plasmid vector for all clones, and all clone inserts were confirmed by full sequencing. For this study a collection of 338 cDNA constructs, representing 220 unique secreted and single pass transmembrane proteins, was used to identify rescued ligands in the present of each compound treatment—each cDNA construct was reverse-transfected using HEK293T/17. […] CellTiter-Glo assay was then used for conducting end-point read out. Following plate to plate normalization of the raw CTG reading for triplicates, the rescue % value for each secreted protein was calculated using the following formula: Rescue %=[Median (drug+supe)−Median (drug)]/[Median (DMSO)−Median (drug)]. The statistical probability score of the Rescue % value was also calculated: p-value=Chidist [Z(drug+supe)^2, 1], where Z(drug+supe)=[Median (drug+supe)−Median (drug)]/Std(drug+supe), where drug+supe stands for the individual sample that were treated with individual supernatant that was expected to contain one unique secreted protein. […]

Nc1cc(C(F)(F)F)c(-c2cc(N3CCOCC3)nc(N3CCOCC3)n2)cn1 [COMPOUND A, 5-(2,6-di-morpholin-4-yl-pyrimidin-4-yl)-4-trifluoromethyl-pyridin-2-ylamine]
tumor response to treatment, tumors growing in the MFP [1]: regression
level of p-AKT inhibition in BM compared with MFP tumors (p-AKT): comparable level of p-AKT inhibition
tumor response to treatment, established brain metastatic lesions [2]: resistant to treatment
in vitro sensitivity of brain microenvironment-exposed cells versus parental cells (BT474-Gluc-BR cells): similarly sensitive
concentration in breast tumors growing at both sites (MFP, brain) and in plasma [3]: identical

B1: NRG-1: neuregulin 1, HER3 ligand; secreted growth factor (protein)
chain: TSHLVKCAEKEKTFCVNGGECFMVKDLSNPSRYLCKCPNEFTGDRCQNYVMASFYKHLGIEFMEAEELYQK
induction of resistance to COMPOUND A [4]: most potent inducers of resistance
